Source: US20240124434A1, “ATF6 INHIBITORS AND USES THEREOF” (Altos Labs, Inc., priority 2018, published 2024)
In brackets after ≈: the same amount, converted by molar mass. Like-named read-outs stand apart in the source and are kept apart here.

Tests used:
ATF6 = assay: ERSE ATF6-luciferase reporter assay (thapsigargin-induced ER stress); type: cell-based, human
[1] = In vitro microsomal stability, human liver microsomes; type: in vitro ADME; details: for Rem. @ hLM (%): remaining fraction after 30 min, 1 mM NADPH
Summary of the method: (§1)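 1 μM compound was incubated at 37 °C with 0.5 mg/mL human, mouse or rat liver microsomes and 1 mM NADPH in 100 mM phosphate buffer pH 7.4. Reactions were stopped at 0, 5, 15 and 30 min with cold acetonitrile containing propranolol internal standard.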

[2] = In vitro microsomal stability, mouse liver microsomes; type: in vitro ADME; details: for Rem. @ mLM (%): remaining fraction after 30 min, 1 mM NADPH
Summary of the method: as §1

[3] = In vitro microsomal stability, rat liver microsomes; type: in vitro ADME; details: for half-life at 1 μM / half-life at […], 1 µM: rat, read-out: T1/2 @ rLM; for Rem. @ rLM (%): remaining fraction after 30 min, 1 mM NADPH
Summary of the method: as §1

[4] = Kinetic solubility (nephelometry); type: physicochemical; details: PBS pH 7.4, 1% DMSO, 1 hour at 37° C., light scattering at 625 nm
Protocol: Concentration (μM) was then calculated by segmental regression. Amiodarone (#A8423 Aldrich) was used as positive control.

CYP1A2 = CYP1A2 (Homo sapiens (Human), UniProt P05177); assay: CYP inhibition in human liver microsomes
Protocol: (§2) CYP inhibition by test compounds in human liver microsomes (HLM) for seven major CYP450 isoforms CYP1A2, CYP2C9, CYP2D6, CYP2B6, CYP2C8, CYP2C19 and CYP3A4 were assessed. […] 50 μM phenacetin, 2 μM midazolam, 5 μM diclofenac, 50 μM mephenytoin, 80 μM bupropion, and 5 μM dextromethorphan were used as probe substrates of CYP1A2, CYP3A4, CYP2C9, CYP2C19, CYP2B6, and CYP2D6, respectively. The incubation times were 20 min for […], CYP2D6, CYP2C9, CYP2B6, and CYP2C8; 40 min for CYP2C19; and 10 min for CYP 3A4. Following incubations, the reactions were terminated with acetonitrile containing internal standard. The samples were centrifuged and the supernatants were analyzed for the formation of metabolites (1-hydroxymidazolam (CYP3A4), 4-hydroxydiclofenac (CYP2C9), 4-hydroxymephenytoin (CYP2C19) and dextrorphan (CYP2D6), hydroxybupropion (CYP2B6), acetaminophen (CYP1A2), desethylamodiaquine (CYP2C8)) by LC/MS/MS.

CYP2B6 = CYP2B6 (Homo sapiens (Human), UniProt P20813); assay: CYP inhibition in human liver microsomes
Protocol: as §2

CYP2C19 = CYP2C19 (Homo sapiens (Human), UniProt P33261); assay: CYP inhibition in human liver microsomes
Protocol: as §2

CYP2C9 = CYP2C9 (Homo sapiens (Human), UniProt P11712); assay: CYP inhibition in human liver microsomes
Protocol: as §2

CYP2D6 = CYP2D6 (Homo sapiens (Human), UniProt P10635); assay: CYP inhibition in human liver microsomes
Protocol: as §2

CYP3A4 = CYP3A4 (Homo sapiens (Human), UniProt P08684); assay: CYP inhibition in human liver microsomes
Protocol: as §2

[5] = mouse, in vivo, po, 10 mg/kg
Protocol: (§3) Tested compounds were formulated at 1 mg/mL as a dosing solution for oral administration in vehicle A: 10% dimethylacetamide (DMAC), 20% propylene glycol, and 40% PEG-400 or vehicle B: 10% Kolliphor® EL and 10% ethanol (EtOH).
(§4) Animals were acclimated for a minimum period of 4 days upon arrival at the testing facility.
(§5) At the day of study, mice were weighed, identified by marking the tail with numbers using a non-toxic permanent marker, and designated into ten experimental groups (n=3 per group).
(§6) Non-dosed mice were used to collect samples of zero time points. […] Blood samples were centrifuged immediately at 9,000 g at 4° C. for 5 minutes and then plasmas were separated. Plasma samples were placed into individually labeled cryovials and stored in a −80° C. freezer until LC/MS/MS bioanalysis.
(§7) The bioanalysis of plasma samples was conducted with a QTRAP 4500 triple quadrupole mass spectrometer (Applied Biosystems SCIEX) in the positive ion mode and interfaced with an Ekspert Ultra LC100 UPLC System (Eksigent). Calibration standards (0.01 to 10 μM) and QCs (0.02, 0.2 and 2.0 μM) were prepared from naïve mouse plasma in parallel with mouse plasma study samples (60 μL) by precipitation with three volumes of ice cold internal standard solution (acetonitrile containing 20 μM of theophylline). The precipitated samples were centrifuged at 6,100 g for 30 min. Following centrifugation, an aliquot of each supernatant was transferred to an autosampler plate and diluted with two volumes of aqueous mobile phase (0.1% formic acid in water). Samples were injected onto a reverse phase analytical column (YMC Triart C18; 2.0×50 mm; 1.9 μm; YMC CO) and eluted with a gradient of 0.1% formic acid in Acetonitrile. Assayed test compound and internal standards were monitored by a multiple reaction monitoring (MRM) experiment using an Analyst software (v1.6.2, Applied Biosystems SCIEX). Quantitation was conducted using a MultiQuant software (v2.1, Applied Biosystems SCIEX) and the resulting calibration curve was fitted with a linear regression and 1/x weighting. The lower limits of quantitation were 1<LLQ <5 ng/mL.

in vivo = details: Balb/c, mouse, po, 10 mg/kg
Protocol: as §3, §4, §5, §6, §7

CYP2C8 = CYP2C8 (Homo sapiens (Human), UniProt P10632); assay: CYP inhibition in human liver microsomes; details: read-out: CYP-2C8, metabolite desethylamodiaquine
Protocol: as §2

[6] = Oral bioavailability and PK parameters in Balb/c mice; details: single oral dose 10 mg/kg
Protocol: as §3, §4, §5, §6, §7

[7] = human, human liver microsomes, pH 7.4, read-out: T1/2 @ hLM
[8] = pH 7.4, intrinsic clearance, human liver microsomes, read-out: Clint @ hLM
[9] = 1 μM compound, 0.5 mg/mL human liver microsomes
[10] = mouse, mouse liver microsomes, pH 7.4, read-out: T1/2 @ mLM
[11] = pH 7.4, intrinsic clearance, mouse liver microsomes, read-out: Clint @ mLM
[12] = 1 μM compound, 0.5 mg/mL mouse liver microsomes
[13] = pH 7.4, intrinsic clearance, rat liver microsomes, read-out: Clint @ rLM
[14] = 1 μM compound, 0.5 mg/mL rat liver microsomes
[15] = aqueous buffer, kinetic from dmso stock
[16] = Homo sapiens, U2OS, dose-response 30 μM to 1 nM, thapsigargin-induced ER stress, U2-OS ATF6 luc reporter cells, read-out: IC50 ATF6-Luc reporter
[17] = Homo sapiens, U2OS, 1 μM test compound, thapsigargin-induced ER stress, U2-OS ATF6 luc reporter cells, 8 hr, read-out: Inh. ATF6-Luc @ 1 μM [%]
[18] = read-out: CYP-1A2, human liver microsomes, probe substrate phenacetin
[19] = read-out: CYP-2B6, human liver microsomes, probe substrate bupropion
[20] = read-out: CYP-2C19, human liver microsomes, probe substrate mephenytoin
[21] = read-out: CYP-2C9, human liver microsomes, probe substrate diclofenac
[22] = read-out: CYP-2D6, human liver microsomes, probe substrate dextromethorphan
[23] = read-out: CYP-3A4, human liver microsomes, probe substrate midazolam

CYP2C9, sequence (P11712 whole entry): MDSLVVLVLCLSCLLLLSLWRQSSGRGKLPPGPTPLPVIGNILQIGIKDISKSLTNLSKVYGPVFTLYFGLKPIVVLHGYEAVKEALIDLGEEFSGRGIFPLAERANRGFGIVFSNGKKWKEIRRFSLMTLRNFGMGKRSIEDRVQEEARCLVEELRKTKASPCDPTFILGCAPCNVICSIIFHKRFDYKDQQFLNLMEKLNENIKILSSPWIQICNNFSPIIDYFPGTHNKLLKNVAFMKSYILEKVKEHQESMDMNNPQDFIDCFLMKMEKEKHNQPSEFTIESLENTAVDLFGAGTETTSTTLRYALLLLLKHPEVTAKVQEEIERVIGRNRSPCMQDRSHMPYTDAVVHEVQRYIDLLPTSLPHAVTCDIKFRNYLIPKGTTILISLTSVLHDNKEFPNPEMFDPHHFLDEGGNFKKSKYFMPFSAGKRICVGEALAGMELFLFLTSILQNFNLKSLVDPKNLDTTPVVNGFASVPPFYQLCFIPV
CYP1A2, sequence (P05177 whole entry, canonical isoform): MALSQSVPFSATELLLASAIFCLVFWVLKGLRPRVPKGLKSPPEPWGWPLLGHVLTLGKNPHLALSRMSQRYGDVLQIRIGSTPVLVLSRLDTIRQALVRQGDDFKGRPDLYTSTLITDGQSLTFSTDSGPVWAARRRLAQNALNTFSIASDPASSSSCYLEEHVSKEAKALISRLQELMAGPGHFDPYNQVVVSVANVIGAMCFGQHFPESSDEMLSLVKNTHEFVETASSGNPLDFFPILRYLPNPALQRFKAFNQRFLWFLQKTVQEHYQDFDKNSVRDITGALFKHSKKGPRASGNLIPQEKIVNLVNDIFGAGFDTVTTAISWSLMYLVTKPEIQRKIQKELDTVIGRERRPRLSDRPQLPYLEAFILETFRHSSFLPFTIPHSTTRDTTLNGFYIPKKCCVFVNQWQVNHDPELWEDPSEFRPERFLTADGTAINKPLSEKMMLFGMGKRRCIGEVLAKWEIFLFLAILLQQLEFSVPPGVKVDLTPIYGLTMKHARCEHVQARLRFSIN
CYP2C8, sequence (P10632 whole entry): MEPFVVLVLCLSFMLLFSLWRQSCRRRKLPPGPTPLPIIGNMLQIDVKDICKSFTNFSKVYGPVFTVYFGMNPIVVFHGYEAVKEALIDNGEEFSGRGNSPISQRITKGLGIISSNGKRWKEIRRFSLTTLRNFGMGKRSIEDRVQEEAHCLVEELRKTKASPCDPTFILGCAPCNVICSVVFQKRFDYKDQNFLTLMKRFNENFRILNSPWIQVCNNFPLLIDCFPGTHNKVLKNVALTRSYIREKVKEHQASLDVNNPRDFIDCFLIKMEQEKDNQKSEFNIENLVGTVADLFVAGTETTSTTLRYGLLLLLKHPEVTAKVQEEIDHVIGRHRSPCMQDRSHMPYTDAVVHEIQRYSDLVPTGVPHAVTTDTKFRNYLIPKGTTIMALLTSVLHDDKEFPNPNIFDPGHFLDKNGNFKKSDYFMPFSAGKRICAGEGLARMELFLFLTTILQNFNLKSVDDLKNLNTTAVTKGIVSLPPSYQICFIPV
CYP2D6, sequence (P10635 whole entry): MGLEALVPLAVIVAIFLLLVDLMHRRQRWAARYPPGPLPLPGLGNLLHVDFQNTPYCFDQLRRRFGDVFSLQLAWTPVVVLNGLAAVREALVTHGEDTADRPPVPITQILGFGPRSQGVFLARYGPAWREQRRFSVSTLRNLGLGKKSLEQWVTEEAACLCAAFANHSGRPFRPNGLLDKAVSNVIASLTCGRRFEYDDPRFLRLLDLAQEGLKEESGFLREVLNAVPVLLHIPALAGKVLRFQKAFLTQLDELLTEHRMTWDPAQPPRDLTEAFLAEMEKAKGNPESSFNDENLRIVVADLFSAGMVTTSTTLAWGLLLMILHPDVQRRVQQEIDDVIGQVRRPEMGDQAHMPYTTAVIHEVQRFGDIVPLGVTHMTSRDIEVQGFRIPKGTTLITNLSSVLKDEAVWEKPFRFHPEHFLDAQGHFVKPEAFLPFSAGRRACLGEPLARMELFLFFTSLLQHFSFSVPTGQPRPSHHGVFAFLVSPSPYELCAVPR
CYP2B6, sequence (P20813 whole entry): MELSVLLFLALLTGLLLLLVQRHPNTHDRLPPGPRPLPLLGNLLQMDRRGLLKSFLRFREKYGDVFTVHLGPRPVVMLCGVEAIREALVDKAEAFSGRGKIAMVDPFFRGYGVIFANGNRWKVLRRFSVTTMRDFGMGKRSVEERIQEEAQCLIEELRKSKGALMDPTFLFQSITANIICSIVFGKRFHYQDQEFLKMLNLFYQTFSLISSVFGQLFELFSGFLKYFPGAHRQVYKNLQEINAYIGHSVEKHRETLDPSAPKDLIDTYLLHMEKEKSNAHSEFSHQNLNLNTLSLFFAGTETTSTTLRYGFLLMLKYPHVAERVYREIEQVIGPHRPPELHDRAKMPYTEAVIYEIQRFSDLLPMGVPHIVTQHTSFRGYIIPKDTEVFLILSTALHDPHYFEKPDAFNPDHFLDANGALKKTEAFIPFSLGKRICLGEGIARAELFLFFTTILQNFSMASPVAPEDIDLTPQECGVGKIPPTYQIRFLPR
CYP3A4, sequence (P08684 whole entry): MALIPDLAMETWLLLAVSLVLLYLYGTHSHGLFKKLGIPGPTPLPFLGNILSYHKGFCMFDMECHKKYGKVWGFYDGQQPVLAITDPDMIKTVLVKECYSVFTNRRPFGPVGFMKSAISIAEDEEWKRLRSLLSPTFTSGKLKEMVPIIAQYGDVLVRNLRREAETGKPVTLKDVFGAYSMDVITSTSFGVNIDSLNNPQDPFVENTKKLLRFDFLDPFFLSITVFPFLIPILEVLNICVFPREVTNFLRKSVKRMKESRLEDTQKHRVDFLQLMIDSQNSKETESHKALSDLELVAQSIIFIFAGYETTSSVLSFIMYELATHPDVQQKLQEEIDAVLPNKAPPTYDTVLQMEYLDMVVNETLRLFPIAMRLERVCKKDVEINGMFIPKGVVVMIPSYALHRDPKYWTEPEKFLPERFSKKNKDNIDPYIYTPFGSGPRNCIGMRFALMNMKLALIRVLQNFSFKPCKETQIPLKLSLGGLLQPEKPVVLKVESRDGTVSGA
CYP2C19, sequence (P33261 whole entry): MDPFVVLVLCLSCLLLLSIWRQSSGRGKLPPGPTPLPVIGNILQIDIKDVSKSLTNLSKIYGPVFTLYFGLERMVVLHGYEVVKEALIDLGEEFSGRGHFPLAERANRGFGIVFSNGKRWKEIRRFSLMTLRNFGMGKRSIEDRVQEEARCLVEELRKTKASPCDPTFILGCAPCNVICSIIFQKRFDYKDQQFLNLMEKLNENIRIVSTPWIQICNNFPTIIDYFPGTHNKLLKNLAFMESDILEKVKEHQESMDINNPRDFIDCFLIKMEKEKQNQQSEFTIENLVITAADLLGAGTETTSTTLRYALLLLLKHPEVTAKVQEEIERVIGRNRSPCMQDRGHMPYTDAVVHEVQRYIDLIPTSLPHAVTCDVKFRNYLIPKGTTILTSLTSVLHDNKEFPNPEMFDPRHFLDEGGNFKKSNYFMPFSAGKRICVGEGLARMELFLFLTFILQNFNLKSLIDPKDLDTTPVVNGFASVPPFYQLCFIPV

SMILES: CC(c1ccc(C(F)(F)F)cc1C(F)(F)F)n1cc(NC(=O)c2cc(-c3ccco3)on2)cn1 (single isomer, unassigned) [“Enantiomer A” of Example S6, N-(1-(1-(2,4-bis(trifluoromethyl)phenyl)ethyl)-1H-pyrazol-4-yl)-5-(furan-2-yl)isoxazole-3-carboxamide]
- IC50 (ATF6): < 1 µM
- Inh. ATF6-Luc @ 1 μM [%] (ATF6; 8 h, 1 µM): +++ (+++ refers to >50% inhibition at 1 μM test compound)
- half-life at 1 μM [1, 7]: 0.4 h
- microsomal CLint at 1 μM [1, 8]: 57.8 µL/min/mg
- Rem. @ hLM (%) [1, 9]: 41.8%
- half-life at 1 μM [2, 10]: 5.97 min
- microsomal CLint at 1 μM [2, 11]: 232 µL/min/mg
- Rem. @ mLM (%) [2, 12]: 3.05%
- microsomal CLint at 1 μM [3, 13]: 283 µL/min/mg
- half-life at 1 μM ([3]; rat liver microsomes, pH 7.4): 0.0815 h
- Rem. @ rLM (%) [3, 14]: 1.4%
- solubility kinetic at 1 h [4, 15]: 27 µM (≈ 13.1 µg/mL)
- IC50 (CYP1A2): 15.3 µM
- IC50 (CYP2B6): 4.18 µM
- IC50 (CYP2C19): 3.54 µM
- IC50 (CYP2C9): 7.88 µM
- IC50 (CYP2D6): 23.7 µM
- IC50 (CYP3A4): > 50 µM
- AUCExtr [%] ([5]; Balb/c): 1.73%
- F [%] ([5]; Balb/c): 9.6%
- Last time point for AUClast [5]: 8 h
- AUC(0-inf) (in vivo): 626 ng·h/mL
- AUC(0-t) (in vivo): 615 ng·h/mL
- Cmax (in vivo): 579 ng/mL
- Tmax (in vivo): 0.5 h
- half-life (in vivo): 1.6 h

SMILES: CC(c1ccc(C(F)(F)F)cc1C(F)(F)F)n1cc(NC(=O)c2cnc(-c3ccccn3)s2)cn1 (stereo not drawn) [Compound 78, N-(1-(1-(2,4-bis(trifluoromethyl)phenyl)ethyl)-1H-pyrazol-4-yl)-2-(pyridin-2-yl)thiazole-5-carboxamide]
- IC50 (ATF6; [16]): 1 to 10 µM
- inhibition at 1 µM (ATF6; [17]): < 25%
- half-life at […], 1 µM [1, 7]: 1.59 h
- microsomal CLint at […], 1 µM [1, 8]: 14.5 µL/min/mg
- Rem. @ hLM (%) [1, 9]: 80.4%
- half-life at […], 1 µM [2, 10]: 1.31 h
- microsomal CLint at […], 1 µM [2, 11]: 17.6 µL/min/mg
- Rem. @ mLM (%) [2, 12]: 76.8%
- microsomal CLint at […], 1 µM [3, 13]: 22.3 µL/min/mg
- half-life at […], 1 µM ([3]; rat liver microsomes, pH 7.4): 1.04 h
- Rem. @ rLM (%) [3, 14]: 71.6%
- IC50 (CYP1A2; [18]): 22.4 µM
- IC50 (CYP2B6; [19]): 4.97 µM
- IC50 (CYP2C19; [20]): 5.27 µM
- IC50 (CYP2C8): 1.8 µM
- IC50 (CYP2C9; [21]): 5.48 µM
- IC50 (CYP2D6; [22]): 2.78 µM
- IC50 (CYP3A4; [23]): > 50 µM

SMILES: CC(c1ccc(C(F)(F)F)cc1C(F)(F)F)n1cc(NC(=O)c2nnc(-c3cnccn3)s2)cn1 (stereo not drawn) [Compound 136, N-(1-(1-(2,4-bis(trifluoromethyl)phenyl)ethyl)-1H-pyrazol-4-yl)-5-(pyrazin-2-yl)-1,3,4-thiadiazole-2-carboxamide]
- IC50 (ATF6; [16]): < 1 µM
- inhibition at 1 µM (ATF6; [17]): > 50%
- half-life at […], 1 µM [1, 7]: 1.57 h
- microsomal CLint at […], 1 µM [1, 8]: 15 µL/min/mg
- Rem. @ hLM (%) [1, 9]: 77.8%
- half-life at […], 1 µM [2, 10]: 1.77 h
- microsomal CLint at […], 1 µM [2, 11]: 13 µL/min/mg
- Rem. @ mLM (%) [2, 12]: 78.7%
- microsomal CLint at […], 1 µM [3, 13]: 44 µL/min/mg
- half-life at 1 μM ([3]; rat liver microsomes, pH 7.4): 0.528 h
- Rem. @ rLM (%) [3, 14]: 43.9%
- solubility kinetic at 1 h [4, 15]: 2.34 µM (≈ 1.2 µg/mL)
- IC50 (CYP1A2; [18]): > 50 µM
- IC50 (CYP2B6; [19]): > 50 µM
- IC50 (CYP2C19; [20]): > 50 µM
- IC50 (CYP2C8): > 50 µM
- IC50 (CYP2C9; [21]): > 50 µM
- IC50 (CYP2D6; [22]): > 50 µM
- IC50 (CYP3A4; [23]): > 50 µM

SMILES: O=C(Nc1cnn(Cc2ccc(C(F)(F)F)cc2C(F)(F)F)c1)c1cc(-c2ccco2)on1 [Ceapin-A7, reference compound]
- Inh. ATF6-Luc @ 1 μM [%] (ATF6; 1 μM test compound, thapsigargin-induced ER stress, U2-OS ATF6 luc reporter cells, 8 hr): +++ (+++ refers to >50% inhibition at 1 μM test compound)
- IC50 (ATF6; dose-response 30 μM to 1 nM, thapsigargin-induced ER stress, U2-OS ATF6 luc reporter cells, read-out: IC50 ATF6-Luc reporter): < 1 µM
- T1/2 @ hLM ([1]; half-life, 1 μM compound, 0.5 mg/mL human liver microsomes): 0.36 h
- Clint @ hLM ([1]; intrinsic clearance, human liver microsomes): 64.2 µL/min/mg
- Rem. @ hLM (%) [1, 9]: 35.4%
- T1/2 @ mLM ([2]; half-life, 1 μM compound, 0.5 mg/mL mouse liver microsomes): 9.84 min
- Clint @ mLM ([2]; intrinsic clearance, mouse liver microsomes): 141 µL/min/mg
- Rem. @ mLM (%) [2, 12]: 12%
- T1/2 @ rLM ([3]; half-life, 1 μM compound, 0.5 mg/mL rat liver microsomes): 0.19 h
- Clint @ rLM ([3]; intrinsic clearance, rat liver microsomes): 121 µL/min/mg
- Rem. @ rLM (%) [3, 14]: 14.5%
- solubility kinetic at 1 h [4]: 27.7 µM (≈ 13 µg/mL)
- IC50 (CYP1A2; microsomes): > 50 µM
- IC50 (CYP2B6; microsomes): 7.48 µM
- IC50 (CYP2C9; microsomes): > 45.3 µM
- IC50 (CYP2D6; microsomes): > 50 µM
- IC50 (CYP3A4; [23]): > 50 µM
- F [%] ([6]; Bioavailability): 1.04%
- Last time point for AUClast [6]: 6 h
- CL ([6]; clearance): 231 L/h/kg
- t1/2 ([6]; half-life): 2.49 h
- AUCinf ([6]; plasma): 43.3 ng·h/mL
- AUClast ([6]; plasma): 39.1 ng·h/mL
- Cmax ([6]; plasma): 68.7 ng/mL
- Tmax ([6]; plasma): 0.25 h
- AUCExtr [%] ([6]; plasma, extrapolated AUC): 9.56%
- Vz ([6]; volume of distribution): 831 L/kg

SMILES: C[C@H](c1ccc(C(F)(F)F)cc1C(F)(F)F)n1cc(NC(=O)c2nnc(-c3ccccn3)s2)cn1 [Compound 123, (R)—N-(1-(1-(2,4-bis(trifluoromethyl)phenyl)ethyl)-1H-pyrazol-4-yl)-5-(pyridin-2-yl)-1,3,4-thiadiazole-2-carboxamide]
- inhibition at 1 µM (ATF6; Homo sapiens, U2OS, 8 h, read-out: Inh. ATF6-Luc @ 1 μM [%], 1 μM test compound, thapsigargin-induced ER stress, U2-OS ATF6 luc reporter cells, 8 hr): > 50%
- IC50 (ATF6; Homo sapiens, U2OS, read-out: IC50 ATF6-Luc reporter [μM], dose-response 30 μM to 1 nM, thapsigargin-induced ER stress, U2-OS ATF6 luc reporter cells): < 1 µM
- half-life at […], 1 µM [1, 7]: 7.67 h
- microsomal CLint at […], 1 µM [1, 8]: 3 µL/min/mg
- Rem. @ hLM (%) [1, 9]: 95.5%
- half-life at […], 1 µM [2, 10]: 3.22 h
- microsomal CLint at […], 1 µM [2, 11]: 7.2 µL/min/mg
- Rem. @ mLM (%) [2, 12]: 89.7%
- microsomal CLint at […], 1 µM [3, 13]: 10.7 µL/min/mg
- half-life at […], 1 µM ([3]; rat liver microsomes, pH 7.4): 2.17 h
- Rem. @ rLM (%) [3, 14]: 81.5%
- solubility kinetic at 1 h [4, 15]: 1.17 µM (≈ 0.6 µg/mL)
- IC50 (CYP2B6; [19]): 42.9 µM
- IC50 (CYP2C19; [20]): > 50 µM
- IC50 (CYP2C8): 33.3 µM
- IC50 (CYP2C9; [21]): 31.9 µM
- IC50 (CYP2D6; [22]): > 50 µM
- IC50 (CYP3A4; [23]): > 50 µM
- AUCExtr [%] ([5]; Balb/c): 37.7%
- F [%] ([5]; Balb/c): 64.1%
- Vz ([5]; Balb/c): 4.43 L/kg
- Last time point for AUClast [5]: 24 h
- AUC(0-inf) (in vivo): 62200 ng·h/mL
- AUC(0-t) (in vivo): 38800 ng·h/mL
- Cmax (in vivo): 4560 ng/mL
- Tmax (in vivo): 1 h
- half-life (in vivo): 19.1 h
